Tests used:
cell-mediated immunity = experiment: Cell-mediated immunity, delayed hypersensitivity (picryl chloride) in Sarcoma 180-inoculated mice; assay type: in vivo, ICR-JCL strain mice; conditions: 75 mg/kg
Procedure: The tests were carried out by the following procedure: groups of ICR-JCL strain mice (six male mice per group, average body weight 31.9±3 g.) were inoculated with the ascites tumor "Sarcoma 180" (10^6 cells). 24 Hours after the inoculation of the tumor cells, each of the drug samples to be tested was subcutaneously administered and a known anti-tumor agent (cyclophosphamide) was intraperitoneally administered to the inoculated mice. Two days after the inoculation, an ethanolic solution of 5% picryl chloride was applied onto the hair-shaved abdomen of the mice to establish the sensitization. Subsequently, each drug sample under test was subcutaneously administered once a day for the successive four days. 4 Days after the inoculation, cyclophosphamide was again administered. Nine days after the inoculation, a solution of 1% picryl chloride in olive oil was challenged onto the two sides of both ears of the mice to establish the secondary sensitization. 24 Hours after the secondary sensitization, the degree (%) of increase in thickness of the ears was calculated for the test mice. The extent of the swelling which serves as a measure of stimulating cell-mediated immunity involved can be evaluated from the percentage increase in the ear thickness.

Sarcoma 180 = experiment: Solid tumor of Sarcoma 180, treatment after inoculation; assay type: in vivo, ICR-strain mice; conditions: 2 mg/kg, i.p., 5 days after inoculation
Procedure: In a separate experiment, male ICR-strain mice (five in each group with an average body weight of 20±2 g) were inoculated in the flank with 7×10^6 live tumor cells of Sarcoma 180 in 0.05 ml. After 24 hours, each group of mice was treated by intraperitoneal injection of 0.1 ml. of saline or sample dissolved in saline for 5 consecutive days. Seven days after the inoculation, all mice were sacrificed and the primary subcutaneous tumor excised and weighed.
In the above table, degree (%) of inhibition to the growth of tumor was calculated according to the following equation: [formula]

Solubility = assay type: physicochemical
various bacteria = experiment: Antibacterial activity with combined use of maltose or maltodextrin; assay type: cell-based; conditions: under the above-mentioned testing conditions
Procedure: These paper discs were placed on an upper plate layers of the known mycin-assay incubation medium comprising 0.5% peptone, 0.3% meat extract and 1.5% agar (pH 6) which contained the test microorganism to be incubated therein and which was laid over the lower layer of agar medium in the assaying dish. The incubation was made at a temperature of 37° C. overnight, and subsequently the diameter of the inhibition zones formed around the paper discs was measured. […] These tests were repeated in the same manner as above but with additional incorporation of 1.25 mg/cc of maltotriose into the upper plate layer of the mycin-assay incubation medium.

| Solubility (Solubility; in acetone) | Solubility (Solubility; in ethanol) | Solubility (Solubility; in methanol) | Solubility (Solubility; in water) | SMILES | further results |
| --- | --- | --- | --- | --- | --- |
|  |  |  |  | O=P1(N(CCCl)CCCl)NCCCO1 (stereo not shown) [Cyclophosphamide, N,N-bis (2-chloroethyl)tetrahydro-2H-1,3,2-oxazophosphorin-2-amine-2-oxide] | Degree of increase in ear thickness (cell-mediated immunity): 4.0 ± 2.60 ×10^-3 cm; percentage increase (cell-mediated immunity; untreated = 100.0): 51.9% |
|  |  |  |  | CO[C@@]12[C@H](COC(N)=O)C3=C(C(=O)C(C)=C(N)C3=O)N1C[C@@H]1N[C@@H]12 [Mitomycin C, mitomycin C] | Degree (%) of inhibition to tumor growth (Sarcoma 180): 45%; Tumor weight (Sarcoma 180): 0.43 g |
| not soluble | not soluble | sparingly soluble | readily soluble | OC[C@H]1O[C@H](O[C@H]2[C@H](O)[C@@H](O)[C@@H](O[C@H]3[C@H](O)[C@@H](O)[C@@H](O[C@H]4[C@H](O)[C@@H](O)[C@@H](O[C@H]5[C@H](O)[C@@H](O)[C@@H](O[C@H]6[C@H](O)[C@@H](O)C(O)O[C@@H]6CO)O[C@@H]5CO)O[C@@H]4CO)O[C@@H]3CO)O[C@@H]2CO)[C@H](O)[C@@H](O)[C@@H]1O (stereo partly shown) [maltohexaose] |  |
| not soluble | not soluble | sparingly soluble | readily soluble | OC[C@H]1O[C@H](O[C@H]2[C@H](O)[C@@H](O)[C@@H](O[C@H]3[C@H](O)[C@@H](O)[C@@H](O[C@H]4[C@H](O)[C@@H](O)[C@@H](O[C@H]5[C@H](O)[C@@H](O)C(O)O[C@@H]5CO)O[C@@H]4CO)O[C@@H]3CO)O[C@@H]2CO)[C@H](O)[C@@H](O)[C@@H]1O (stereo partly shown) [maltopentaose] |  |
|  |  |  |  | OC[C@H]1O[C@H](O[C@H]2[C@H](O)[C@@H](O)[C@@H](O[C@H]3[C@H](O)[C@@H](O)C(O)O[C@@H]3CO)O[C@@H]2CO)[C@H](O)[C@@H](O)[C@@H]1O (stereo partly shown) [maltotriose] | Antibacterial activity of maltodextrins alone (various bacteria): do not exhibit any antibacterial activity |

Source: patent publication US4160026A (priority 1976, dated 1979)
